Test results from patent publication US20240208992A1, “MACROCYCLES AS CFTR MODULATORS” (Idorsia Pharmaceuticals Ltd, priority 2021, published 2024).

Target: human F508del-CFTR (Homo sapiens, UniProt P13569, DEL508-508)
Test: F508del-CFTR cell surface expression (corrector activity), DiscoveRx ß-galactosidase complementation chemiluminescence assay in recombinant U2OS cell line;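 further: U2OS cells co-expressing ProLink-tagged F508del-CFTR and a membrane-anchored enzyme acceptor, where more surface CFTR restores β-galactosidase activity measured by chemiluminescence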
Settings: for EC50: EC50, F508del-CFTR cell surface expression; for Emax: U2OS
[1] = U2OS cell line, 16h compound incubation, geomean values
[2] = in relation to the Emax of the corrector lumacaftor (=100%), U2OS cell line, 16h compound incubation, arithmetic mean values
[3] = U2OS cells, 16h compound incubation, geomean values
[4] = in relation to Emax of corrector lumacaftor (=100%), arithmetic mean values
[5] = U2OS cells, 16h compound incubation, geomean of several measurements
[6] = in relation to the Emax of the corrector lumacaftor (=100%), U2OS cells, 16h compound incubation, arithmetic mean

Sequence of human F508del-CFTR (P13569 with tags, fused parts or gaps DEL508-508): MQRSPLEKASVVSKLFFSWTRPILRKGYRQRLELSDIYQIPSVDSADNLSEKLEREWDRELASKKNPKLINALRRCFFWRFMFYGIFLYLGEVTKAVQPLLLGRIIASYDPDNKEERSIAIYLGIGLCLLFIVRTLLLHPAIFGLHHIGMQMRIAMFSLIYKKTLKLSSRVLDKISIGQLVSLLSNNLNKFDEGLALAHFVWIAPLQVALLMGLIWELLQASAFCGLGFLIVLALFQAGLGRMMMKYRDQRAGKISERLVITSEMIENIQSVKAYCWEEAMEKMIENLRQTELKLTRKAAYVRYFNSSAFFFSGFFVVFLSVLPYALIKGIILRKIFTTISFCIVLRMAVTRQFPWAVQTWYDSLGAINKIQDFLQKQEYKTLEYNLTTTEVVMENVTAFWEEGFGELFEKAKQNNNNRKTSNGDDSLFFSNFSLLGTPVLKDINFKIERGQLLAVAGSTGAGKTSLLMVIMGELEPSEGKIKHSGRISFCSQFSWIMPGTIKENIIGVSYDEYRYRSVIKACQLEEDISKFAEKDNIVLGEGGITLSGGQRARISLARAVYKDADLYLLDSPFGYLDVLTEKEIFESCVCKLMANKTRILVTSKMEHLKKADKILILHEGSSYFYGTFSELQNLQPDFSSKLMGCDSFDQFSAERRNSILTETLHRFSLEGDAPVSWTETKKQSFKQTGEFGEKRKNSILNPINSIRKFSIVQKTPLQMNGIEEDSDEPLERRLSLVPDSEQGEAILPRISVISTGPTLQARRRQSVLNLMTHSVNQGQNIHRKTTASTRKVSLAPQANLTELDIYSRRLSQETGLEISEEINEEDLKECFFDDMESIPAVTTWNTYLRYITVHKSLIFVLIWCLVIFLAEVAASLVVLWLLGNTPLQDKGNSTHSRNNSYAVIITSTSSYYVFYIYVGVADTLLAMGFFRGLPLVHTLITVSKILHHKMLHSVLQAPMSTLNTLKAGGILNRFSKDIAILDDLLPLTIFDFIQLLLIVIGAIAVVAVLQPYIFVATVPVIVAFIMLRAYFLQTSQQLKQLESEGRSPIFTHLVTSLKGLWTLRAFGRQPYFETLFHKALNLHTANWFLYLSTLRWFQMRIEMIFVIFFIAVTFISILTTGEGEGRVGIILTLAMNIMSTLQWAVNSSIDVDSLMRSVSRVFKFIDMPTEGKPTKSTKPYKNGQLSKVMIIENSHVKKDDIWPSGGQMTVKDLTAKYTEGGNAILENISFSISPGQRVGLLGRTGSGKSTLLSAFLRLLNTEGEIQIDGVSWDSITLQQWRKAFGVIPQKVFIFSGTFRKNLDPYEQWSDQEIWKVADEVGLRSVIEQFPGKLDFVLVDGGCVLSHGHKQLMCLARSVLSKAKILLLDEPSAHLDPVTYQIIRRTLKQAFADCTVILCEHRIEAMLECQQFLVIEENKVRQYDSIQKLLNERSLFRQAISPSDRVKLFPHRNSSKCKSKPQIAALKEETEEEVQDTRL

Row | Structure (SMILES) | EC50 [1] | Emax [2] | EC50 [3] | Emax [4] | EC50 [5] | Emax [6]
1 | CCc1ccc(CCNC(=O)[C@@H]2CC(=O)N(C)[C@@H](CC(C)C)C(=O)N3CCOC[C@@H]3C(=O)N[C@H](Cc3ccccc3)COc3cnc4ccccc4c3C(=O)N2)cc1 [Example 47, (9S,13S,19aR,22R)-22-benzyl-N-(4-ethylphenethyl)-13-isobutyl-12-methyl-7,11,14,20-tetraoxo-7,8,9,10,11,12,13,14,16,17,19,19a,20,21,22,23-hexadecahydro-[1,4]oxazino[3′,4′:6,7][1]oxa[4,7,10,14]tetraazacycloheptadecino[17,16-c]quinoline-9-carboxamide] | 213 nM | 247% |  |  |  | 
2 | Cc1cc(CCNC(=O)[C@@H]2CC(=O)N(C)[C@@H](CC(C)C)C(=O)N(C[C@@H]3COc4ccccc4C3)CC(=O)N[C@H](Cc3ccccc3)COc3cnc4ccccc4c3C(=O)N2)on1 [Example 705, (3S,7S,13R)-13-benzyl-9-(((R)-chroman-3-yl)methyl)-7-isobutyl-6-methyl-N-(2-(3-methylisoxazol-5-yl)ethyl)-1,5,8,11-tetraoxo-1,2,3,4,5,6,7,8,9,10,11,12,13,14-tetradecahydro-[1]oxa[4,7,10,14]tetraazacycloheptadecino[17,16-c]quinoline-3-carboxamide] |  |  | 305 nM | 193% |  | 
3 | COc1nccc2c1C(=O)N[C@H](C(=O)NCCn1nc3ccccc3n1)CC(=O)N(C)[C@@H](CC(C)C)C(=O)N1CCCC[C@@H]1C(=O)N[C@H](Cc1ccccc1)CO2 [Example 832, (7S,11S,17aR,20R)-N-(2-(2H-benzo[d][1,2,3]triazol-2-yl)ethyl)-20-benzyl-11-isobutyl-4-methoxy-10-methyl-5,9,12,18-tetraoxo-5,6,7,8,9,10,11,12,15,16,17,17a,18,19,20,21-hexadecahydro-14H-dipyrido[2,1-f:3′,4′-p][1]oxa[4,7,10,14]tetraazacycloheptadecine-7-carboxamide] |  |  |  |  | 518 nM | 367%
4 | Cc1cc(CCNC(=O)[C@@H]2CC(=O)N(C)[C@@H](CC(C)C)C(=O)N(C)[C@H](C3CC3)C(=O)N[C@H](Cc3ccccc3)COc3ccc4ccccc4c3C(=O)N2)on1 [Example 508, (3S,7S,10R,13R)-13-benzyl-10-cyclopropyl-7-isobutyl-6,9-dimethyl-N-(2-(3-methylisoxazol-5-yl)ethyl)-1,5,8,11-tetraoxo-1,2,3,4,5,6,7,8,9,10,11,12,13,14-tetradecahydronaphtho[1,2-p][1]oxa[4,7,10,14]tetraazacycloheptadecine-3-carboxamide] |  |  | 382 nM | 378% |  | 
5 | CC(C)C[C@H]1C(=O)N2CCCC[C@@H]2C(=O)N[C@H](Cc2ccccc2)COc2cnc3ccccc3c2C(=O)N[C@H](C(=O)NCCc2nc(-c3ccccc3OC(F)(F)F)no2)CC(=O)N1C [Example 87, (9S,13S,19aR,22R)-22-benzyl-13-isobutyl-12-methyl-7,11,14,20-tetraoxo-N-(2-(3-(2-(trifluoromethoxy)phenyl)-1,2,4-oxadiazol-5-yl)ethyl)-7,8,9,10,11,12,13,14,17,18,19,19a,20,21,22,23-hexadecahydro-16H-pyrido[2′,1′:6,7][1]oxa[4,7,10,14]tetraazacycloheptadecino[17,16-c]quinoline-9-carboxamide] | 162 nM | 190% |  |  |  | 
6 | COc1cc(CCNC(=O)[C@@H]2CC(=O)N(C)[C@@H](CC(C)C)C(=O)N(C)[C@H](Cc3noc(C(C)(C)C)n3)C(=O)N[C@H](Cc3ccccc3)COc3ccc4ncc(F)cc4c3C(=O)N2)on1 [Example 972, (3S,7S,10R,13R)-13-benzyl-10-((5-(tert-butyl)-1,2,4-oxadiazol-3-yl)methyl)-20-fluoro-7-isobutyl-N-(2-(3-methoxyisoxazol-5-yl)ethyl)-6,9-dimethyl-1,5,8,11-tetraoxo-1,2,3,4,5,6,7,8,9,10,11,12,13,14-tetradecahydro-[1]oxa[4,7,10,14]tetraazacycloheptadecino[16,17-f]quinoline-3-carboxamide] |  |  |  |  | 128 nM | 436%
